Calls of active or inactive are those of the source. How the calls were made is not given here.
Assays:
[1] = test system: RSV-infected cells, CPE inhibition; assay: inhibitors of RSV-induced cell death – synthesized compounds, set 10, dose response (AID 504827)
[2] = as above; conditions: RSV-infected cells, CPE inhibition; at 200 µM (top of the series)

SMILES	IC50 [1] [µM]	CPE inhibition [2]
Cc1ccc(NC(=O)[C@@H]2CCCN2S(=O)(=O)c2cccc3cccnc23)c(C)c1	2.1	–
Cc1cc(NC(=O)[C@@H]2CCCN2S(=O)(=O)c2cccc3cccnc23)n(C(C)(C)C)n1	–	4.92% (inactive)
Cc1ccc(Cn2c(=O)n(Cc3ccc(C(=O)Nc4ccncc4)cc3)c(=O)c3ccccc32)cc1	9.9	–
COc1ccc(C)c(NC(=O)[C@@H]2CCCN2S(=O)(=O)c2cccc3cccnc23)c1	4.6	–
